# From ChEMBL document CHEMBL5528029, “Design, synthesis, and biological evaluation of novel discoidin domain receptor inhibitors for the treatment of lung adenocarcinoma and pulmonary fibrosis” (Eur J Med Chem, 2024)
# Experiments:
# [1] = biological target: NT-3 growth factor receptor (Homo sapiens) (UniProt Q16288); assay: Inhibition of TRK-C (unknown origin) assessed as remaining activity at 1 uM using fluorescein-poly GAT as substrate in presence of ATP by TR-FRET assay relative to control
# [2] = biological target: High affinity nerve growth factor receptor (Homo sapiens) (UniProt P04629); assay: Inhibition of TRK-A (unknown origin) assessed as remaining activity at 1 uM using fluorescein-poly GAT as substrate in presence of ATP by TR-FRET assay relative to control
# [3] = biological target: T1, Discoidin domain-containing receptor 2 (Homo sapiens) (UniProt Q16832); assay: Inhibition of DDR2 (unknown origin) assessed as remaining activity at 1 uM using fluorescein-poly GAT as substrate in presence of ATP by TR-FRET assay relative to control
# T1 sequence (whole entry): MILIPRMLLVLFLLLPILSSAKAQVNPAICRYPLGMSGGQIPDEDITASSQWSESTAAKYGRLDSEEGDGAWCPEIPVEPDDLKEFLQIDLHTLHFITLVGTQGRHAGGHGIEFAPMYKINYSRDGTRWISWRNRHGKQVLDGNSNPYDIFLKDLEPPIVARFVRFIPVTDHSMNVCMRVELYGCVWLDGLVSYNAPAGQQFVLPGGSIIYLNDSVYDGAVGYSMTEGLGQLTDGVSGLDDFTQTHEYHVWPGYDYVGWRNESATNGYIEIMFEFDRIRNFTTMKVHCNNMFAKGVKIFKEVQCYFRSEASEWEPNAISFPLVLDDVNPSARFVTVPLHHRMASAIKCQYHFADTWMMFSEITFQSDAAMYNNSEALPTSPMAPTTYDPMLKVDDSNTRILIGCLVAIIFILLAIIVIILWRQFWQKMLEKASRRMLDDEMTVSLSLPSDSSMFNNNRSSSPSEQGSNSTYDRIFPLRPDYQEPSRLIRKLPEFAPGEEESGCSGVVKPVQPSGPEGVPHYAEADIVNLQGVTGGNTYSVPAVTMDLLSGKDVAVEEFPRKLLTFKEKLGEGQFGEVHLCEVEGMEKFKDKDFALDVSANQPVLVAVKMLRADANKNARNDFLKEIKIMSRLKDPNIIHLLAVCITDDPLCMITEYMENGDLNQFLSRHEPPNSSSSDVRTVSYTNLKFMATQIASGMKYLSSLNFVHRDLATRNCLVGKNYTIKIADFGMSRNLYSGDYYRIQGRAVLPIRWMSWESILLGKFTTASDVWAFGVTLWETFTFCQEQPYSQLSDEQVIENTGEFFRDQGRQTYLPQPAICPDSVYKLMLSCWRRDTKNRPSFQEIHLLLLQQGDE
# [4] = biological target: BDNF/NT-3 growth factors receptor (Homo sapiens) (UniProt Q16620); assay: Inhibition of TRK-B (unknown origin) assessed as remaining activity at 1 uM using fluorescein-poly GAT as substrate in presence of ATP by TR-FRET assay relative to control
# NCI-H1975 = assay: Antiproliferative activity against human NCI-H1975 cells incubated for 72 hrs by MTT assay; conditions: NCI-H1975, 72 h
# [5] = Antiproliferative activity against human SPCA1 cells incubated for 72 hrs by MTT assay; conditions: SPCA1, 72 h
# A549 = assay: Antiproliferative activity against human A549 cells incubated for 72 hrs by MTT assay; conditions: A549, 72 h
# [6] = biological target: T2, Discoidin domain-containing receptor 2 (Homo sapiens, UniProt Q16832); assay: Inhibition of DDR2 (unknown origin)
# T2 sequence (Q16832 whole entry): T1 sequence (whole entry)
# High affinity nerve growth factor receptor (Homo sapiens), sequence (P04629 33-796 limits assumed): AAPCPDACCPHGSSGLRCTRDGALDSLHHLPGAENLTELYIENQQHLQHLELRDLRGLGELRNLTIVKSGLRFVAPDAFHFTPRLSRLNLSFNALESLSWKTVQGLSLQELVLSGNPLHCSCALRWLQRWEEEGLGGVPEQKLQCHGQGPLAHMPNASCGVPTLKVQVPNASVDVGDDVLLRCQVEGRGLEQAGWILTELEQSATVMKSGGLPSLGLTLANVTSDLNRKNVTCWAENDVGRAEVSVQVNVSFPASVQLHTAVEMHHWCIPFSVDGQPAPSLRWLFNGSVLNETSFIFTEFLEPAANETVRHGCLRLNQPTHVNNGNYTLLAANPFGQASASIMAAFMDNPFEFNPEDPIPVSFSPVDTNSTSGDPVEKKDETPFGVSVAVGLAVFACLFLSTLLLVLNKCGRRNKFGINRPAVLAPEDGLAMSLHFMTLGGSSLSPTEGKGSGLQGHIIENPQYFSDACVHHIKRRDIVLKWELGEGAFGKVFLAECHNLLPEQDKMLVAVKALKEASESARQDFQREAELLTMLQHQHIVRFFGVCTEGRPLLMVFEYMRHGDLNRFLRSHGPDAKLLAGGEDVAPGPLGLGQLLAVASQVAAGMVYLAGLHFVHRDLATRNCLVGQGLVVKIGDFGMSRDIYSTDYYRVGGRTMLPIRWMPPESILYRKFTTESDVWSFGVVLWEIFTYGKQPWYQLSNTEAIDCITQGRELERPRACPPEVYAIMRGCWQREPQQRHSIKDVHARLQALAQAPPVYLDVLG
# BDNF/NT-3 growth factors receptor (Homo sapiens), sequence (Q16620 32-822 limits assumed): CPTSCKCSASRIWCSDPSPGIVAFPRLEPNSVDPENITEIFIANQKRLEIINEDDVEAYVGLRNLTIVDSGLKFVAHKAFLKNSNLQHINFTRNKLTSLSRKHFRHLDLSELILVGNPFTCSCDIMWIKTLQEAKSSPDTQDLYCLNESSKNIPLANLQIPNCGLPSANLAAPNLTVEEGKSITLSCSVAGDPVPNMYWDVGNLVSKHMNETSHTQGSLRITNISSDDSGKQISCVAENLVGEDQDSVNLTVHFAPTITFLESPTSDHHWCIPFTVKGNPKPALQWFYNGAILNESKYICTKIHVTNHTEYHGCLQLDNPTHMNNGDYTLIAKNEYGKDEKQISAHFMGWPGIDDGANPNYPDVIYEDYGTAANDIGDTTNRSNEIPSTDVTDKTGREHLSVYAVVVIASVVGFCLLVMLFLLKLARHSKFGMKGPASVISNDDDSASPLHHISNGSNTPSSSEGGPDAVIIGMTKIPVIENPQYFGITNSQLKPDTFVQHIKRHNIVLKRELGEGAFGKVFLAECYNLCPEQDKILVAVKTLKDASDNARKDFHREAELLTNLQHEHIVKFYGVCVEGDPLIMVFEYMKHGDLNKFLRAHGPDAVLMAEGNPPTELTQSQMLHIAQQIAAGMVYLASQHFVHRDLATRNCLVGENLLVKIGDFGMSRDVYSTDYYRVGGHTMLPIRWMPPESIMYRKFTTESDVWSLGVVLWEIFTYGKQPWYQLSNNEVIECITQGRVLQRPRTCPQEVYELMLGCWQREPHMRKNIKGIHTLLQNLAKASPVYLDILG
# NT-3 growth factor receptor (Homo sapiens), sequence (Q16288 32-839 limits assumed): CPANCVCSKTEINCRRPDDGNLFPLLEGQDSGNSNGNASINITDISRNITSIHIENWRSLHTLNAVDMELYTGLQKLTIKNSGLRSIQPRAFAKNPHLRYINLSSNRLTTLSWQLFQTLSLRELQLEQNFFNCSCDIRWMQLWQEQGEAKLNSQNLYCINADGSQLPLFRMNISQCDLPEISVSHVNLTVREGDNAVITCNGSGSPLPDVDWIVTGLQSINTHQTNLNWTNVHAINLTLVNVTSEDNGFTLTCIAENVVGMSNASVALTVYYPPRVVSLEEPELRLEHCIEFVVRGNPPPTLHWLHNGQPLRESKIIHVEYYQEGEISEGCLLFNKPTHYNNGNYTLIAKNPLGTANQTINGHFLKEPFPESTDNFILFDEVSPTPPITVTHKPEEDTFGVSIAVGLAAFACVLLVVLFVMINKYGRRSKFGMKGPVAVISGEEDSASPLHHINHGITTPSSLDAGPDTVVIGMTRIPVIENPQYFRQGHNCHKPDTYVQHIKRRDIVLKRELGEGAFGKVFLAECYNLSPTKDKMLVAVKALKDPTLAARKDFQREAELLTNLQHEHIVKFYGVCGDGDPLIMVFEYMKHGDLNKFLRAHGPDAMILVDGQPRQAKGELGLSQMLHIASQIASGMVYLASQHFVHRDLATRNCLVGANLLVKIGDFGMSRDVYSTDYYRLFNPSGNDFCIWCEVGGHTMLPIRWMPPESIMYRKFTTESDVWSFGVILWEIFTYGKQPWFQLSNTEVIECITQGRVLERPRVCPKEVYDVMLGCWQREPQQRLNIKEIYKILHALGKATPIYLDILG
Compound,Activity [1] [%],Activity [2] [%],Activity [3] [%],Activity [4] [%],IC50 (NCI-H1975) [µM],IC50 [5] [µM],IC50 (A549) [µM],IC50 [6] [µM]
COc1ccc(NC(=O)NCc2cn(CC(=O)N3CCCCC3)c3ccc(F)cc23)cc1,101,92.7,80.6,80.1,,,,
COc1ccc2c(c1)c(CNC(=O)Nc1ccc(C(F)(F)F)cc1)cn2CC(=O)N1CCN(C)CC1,106,96,102,104,,,,
Cc1ccc(NC(=O)NCc2cn(CC(=O)N3CCOCC3)c3ccc(F)cc23)cc1,111,114,72.4,83.8,,,,
COc1ccc2c(c1)c(CNC(=O)Nc1ccc(C)cc1)cn2CC(=O)N1CCN(C)CC1,90.9,98.7,96.2,108,,,,
COc1ccc2c(c1)c(CNC(=O)Nc1ccc(C)cc1)cn2CC(=O)N1CCCCC1,92.5,82.3,83.2,85.7,,,,
COc1ccc2c(c1)c(CNC(=O)Nc1ccc(C(F)(F)F)cc1)cn2CC(=O)N1CCCC1,89.7,90.4,99.5,72.2,,,,
COc1ccc(NC(=O)NCc2cn(CC(=O)N3CCN(C)CC3)c3ccc(F)cc23)cc1,106,80,73.5,104,,,,
O=C(NCc1cn(CC(=O)N2CCCC2)c2ccc(F)cc12)Nc1ccccc1Cl,68.6,78,73.8,81.5,,,,
COc1ccc(NC(=O)NCc2cn(CC(=O)N3CCCCC3)c3ccc(OC)cc23)cc1,92.7,92.1,72.4,87.4,,,,
O=C(NCc1cn(CC(=O)N2CCOCC2)c2ccc(F)cc12)Nc1ccccc1Cl,87.4,78,54.5,83.8,,,,
COc1ccc2c(c1)c(CNC(=O)Nc1ccccc1Cl)cn2CC(=O)N1CCN(C)CC1,82.9,94,55.9,93.4,,,,
COc1ccc(NC(=O)NCc2cn(CC(=O)N3CCCC3)c3ccc(F)cc23)cc1,110,71.6,86.3,83.8,,,,
COc1ccc2c(c1)c(CNC(=O)Nc1ccc(F)cc1F)cn2CC(=O)N1CCOCC1,60.5,77.8,74.7,73.1,,,,
Cc1ccc(NC(=O)NCc2cn(CC(=O)N3CCCC3)c3ccc(F)cc23)cc1,91.2,101,95.4,99.5,,,,
O=C(NCc1cn(CC(=O)N2CCCCC2)c2ccc(F)cc12)Nc1ccccc1Cl,84.2,90.3,48,75.7,,,,
CN1CCN(C(=O)Cn2cc(CNC(=O)Nc3ccc(C(F)(F)F)cc3)c3cc(F)ccc32)CC1,93.7,81.5,74.2,105,,,,
O=C(NCc1cn(CC(=O)N2CCCCC2)c2ccc(F)cc12)Nc1ccc(F)cc1F,83.5,88.2,41.3,106,3.86,1.73,1.67,1.19
COc1ccc2c(c1)c(CNC(=O)Nc1ccc(F)cc1F)cn2CC(=O)N1CCN(C)CC1,68.8,93.1,66.5,88.9,,,,
COc1ccc2c(c1)c(CNC(=O)Nc1ccc(C)cc1)cn2CC(=O)N1CCCC1,77.5,75.2,84.8,87.9,,,,
O=C(NCc1cn(CC(=O)N2CCCC2)c2ccc(F)cc12)Nc1ccc(C(F)(F)F)cc1,94.3,101,81.1,101,,,,

Compound,Activity [1] [%],Activity [2] [%],Activity [3] [%],Activity [4] [%],IC50 (NCI-H1975) [µM],IC50 [5] [µM],IC50 (A549) [µM],IC50 [6] [µM]
COc1ccc2c(c1)c(CNC(=O)Nc1ccc(C)cc1)cn2CC(=O)N1CCOCC1,87.5,81.3,89.6,84,,,,
COc1ccc2c(c1)c(CNC(=O)Nc1ccc(C(F)(F)F)cc1)cn2CC(=O)N1CCOCC1,103,71.8,82.2,79,,,,
COc1ccc(NC(=O)NCc2cn(CC(=O)N3CCN(C)CC3)c3ccc(OC)cc23)cc1,94.5,108,93.4,108,,,,
COc1ccc2c(c1)c(CNC(=O)Nc1ccccc1Cl)cn2CC(=O)N1CCCCC1,68.9,74.8,64.3,87.4,,,,
COc1ccc(NC(=O)NCc2cn(CC(=O)N3CCOCC3)c3ccc(OC)cc23)cc1,89,98.9,95.3,92.5,,,,
O=C(NCc1cn(CC(=O)N2CCOCC2)c2ccc(F)cc12)Nc1ccc(C(F)(F)F)cc1,98.3,77.5,90.2,72.2,,,,
O=C(NCc1cn(CC(=O)N2CCCC2)c2ccc(F)cc12)Nc1ccc(F)cc1F,75.2,95.7,32.5,69.5,5.34,10.5,11.2,1.67
Cc1ccc(NC(=O)NCc2cn(CC(=O)N3CCN(C)CC3)c3ccc(F)cc23)cc1,104,91.7,78.2,90.4,,,,
COc1ccc2c(c1)c(CNC(=O)Nc1ccccc1Cl)cn2CC(=O)N1CCCC1,69.6,95.7,67.8,99.3,,,,
COc1ccc2c(c1)c(CNC(=O)Nc1ccccc1Cl)cn2CC(=O)N1CCOCC1,86,91.7,54.7,97.2,,,,
COc1ccc2c(c1)c(CNC(=O)Nc1ccc(C(F)(F)F)cc1)cn2CC(=O)N1CCCCC1,105,91.6,73.8,74.9,,,,
O=C(NCc1cn(CC(=O)N2CCOCC2)c2ccc(F)cc12)Nc1ccc(F)cc1F,82.7,93.8,53.5,72.8,1.98,2.82,3.72,0.45
COc1ccc2c(c1)c(CNC(=O)Nc1ccc(F)cc1F)cn2CC(=O)N1CCCC1,76.2,74,50.8,104,3.72,7.35,6.96,1.33
Cc1ccc(NC(=O)NCc2cn(CC(=O)N3CCCCC3)c3ccc(F)cc23)cc1,99.7,99.7,92.5,97,,,,
CN1CCN(C(=O)Cn2cc(CNC(=O)Nc3ccccc3Cl)c3cc(F)ccc32)CC1,90.2,81.8,73.5,89.6,,,,
O=C(NCc1cn(CC(=O)N2CCCCC2)c2ccc(F)cc12)Nc1ccc(C(F)(F)F)cc1,105,87,70.1,108,,,,
COc1ccc2c(c1)c(CNC(=O)Nc1ccc(F)cc1F)cn2CC(=O)N1CCCCC1,68.6,84.7,74.8,70.8,,,,
COc1ccc(NC(=O)NCc2cn(CC(=O)N3CCOCC3)c3ccc(F)cc23)cc1,82.7,90.8,79.4,107,,,,
COc1ccc(NC(=O)NCc2cn(CC(=O)N3CCCC3)c3ccc(OC)cc23)cc1,88.1,113,91.5,102,,,,
